These results are taken from US9145415B2, “Nitrogen-containing heterocyclic compound or salt thereof” (FUJIFILM Corporation, priority 2012, dated 2015).

Read-outs that look alike come from different tables or passages of the source.

In experiment [1] the target is T1, human FLT3 protein (FLT3 (WT)) (Homo sapiens, UniProt P36888).
T1 construct: human FLT3 protein (intracellular region, 564 to 993 aa); GST; purchased Carna Biosciences; host or cells: baculovirus expression system
T1 sequence (P36888 564-993): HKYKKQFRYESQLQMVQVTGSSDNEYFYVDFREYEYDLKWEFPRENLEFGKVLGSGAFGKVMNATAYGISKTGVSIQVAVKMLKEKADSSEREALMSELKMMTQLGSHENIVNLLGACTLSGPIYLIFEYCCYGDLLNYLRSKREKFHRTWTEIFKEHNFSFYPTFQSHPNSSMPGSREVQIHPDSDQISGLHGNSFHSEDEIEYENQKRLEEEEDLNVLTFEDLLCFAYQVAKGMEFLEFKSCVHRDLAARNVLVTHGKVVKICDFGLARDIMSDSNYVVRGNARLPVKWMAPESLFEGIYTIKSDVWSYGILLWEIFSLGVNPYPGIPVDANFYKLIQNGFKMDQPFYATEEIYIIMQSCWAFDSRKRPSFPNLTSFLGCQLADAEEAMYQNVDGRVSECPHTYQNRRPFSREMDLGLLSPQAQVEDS
Put plainly: FLT3 inhibition test (FLT3 enzyme inhibition, time-resolved fluorescence of substrate peptide phosphorylation). The format is biochemical. The conditions noted are these: read-out: FLT3 (WT) enzyme inhibition activity. The method, boiled down: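 Wild-type human FLT3 (1.2 μg) pre-incubated with compound 15 min at 25° C in 100 mM HEPES pH 7.5, 10 mM MgCl2, 25 mM NaCl, 1 mM DTT. Reaction started with substrate peptide and ATP (final 50 μM), run 30 min at 25° C; phosphorylation read by time-resolved fluorescence.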

The next experiment has as its system MV4-11 cells. The experiment in a line: Leukemia cell proliferation inhibition test (ATPlite), MV4-11. The format is cell-based. The settings on record: Homo sapiens, read-out: MV4-11 cell proliferation inhibition effect. The method, boiled down:
(§1)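 Luminescent ATP read-out (firefly luciferase) used as a total cell count after 72 h compound exposure at 37° C, 5% CO2. Cells: 10,000/well in RPMI + 10% FBS. GI50 = 50% inhibition relative to 0.1% DMSO, from a sigmoid dose-response fit; duplicates.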
For orientation: ATP-based viability assays read luminescence as a measure of living cells.

The subject of another experiment is Molm-13 cells. The experiment in a line: Leukemia cell proliferation inhibition test (ATPlite), Molm-13. Type of experiment: cell-based. The conditions noted are these: Homo sapiens, read-out: MOLM13 cell proliferation inhibition effect. The gist of the method:
as §1

Setting [2] is: GST-fused human FLT3 (564 to 993 aa), ATP 50 μM.
Where [3] appears, read: MV4-11, 72 h, MV4-11, 72 hours culture, ATPlite, GI50 per method.
[4] abbreviates: MOLM-13, 72 h, Molm-13, 72 hours culture, ATPlite, GI50 per method.

On to `COCCCNc1nc(Nc2ccnc(OC)c2)ncc1C#CCCCNC(=O)[C@H](C)N(C)C(=O)/C=C/CN(C)C` [Compound 9-31], for which the IC50 (in experiment [1] (setting [2]); in the experiment with MV4-11 cells (setting [3]); with Molm-13 cells (setting [4])) was less than 10 nM each time.
Take `CCCNc1nc(Nc2ccc3cnccc3c2)ncc1C(=O)Nc1cccc(NC(=O)[C@H](C)N(C)C(=O)/C=C/CN(C)C)c1` [Compound 6-9, (S,E)-N-(3-(2-(4-(Dimethylamino)-N-methyl-2-butenamido)propanamido)phenyl)-2-(isoquinolin-6-ylamino)-4-(propylamino)pyrimidine-5-carboxamide]: the IC50 (in experiment [1] (setting [2]); in the experiment on MV4-11 cells (setting [3]); in the experiment on Molm-13 cells (setting [4])) was less than 10 nM in each case.
Take `CCCNc1nc(Nc2nnc(C)s2)ncc1C#CCCCNC(=O)[C@H](C)N(C)C(=O)/C=C/CN(C)C` [Compound 9-40]: the IC50 (in experiment [1] (setting [2]); in the experiment on MV4-11 cells (setting [3]); in the experiment with Molm-13 cells (setting [4])) was 10 to 100 nM in each case.
As for `CCCNc1nc(Nc2cccc(F)c2)ncc1C#CCCCNC(=O)[C@H](C)N(C)C(=O)/C=C/CN(C)C` [Compound 7-1, (S,E)-4-(dimethylamino)-N-(1-((5-(2-((3-fluorophenyl)amino)-4-(propylamino)pyrimidin-5-yl)-4-pentyn-1-yl)amino)-1-oxopropan-2-yl)-N-methyl-2-butenamide], the IC50 (in experiment [1] (setting [2]); in the experiment on MV4-11 cells (setting [3]); in the experiment with Molm-13 cells (setting [4])) was less than 10 nM in each case.
Take `CCCNc1nc(Nc2ccc3c(c2)c(F)nn3C)ncc1C#CCCCNC(=O)[C@@H]1CCCN1C(=O)/C=C/CN(C)C` [Compound 22-61]: the IC50 in experiment [1] (FLT3 (WT)) is less than 10 nM; with MV4-11 cells (MV4-11, MV4-11 cell) it was less than 10 nM; with Molm-13 cells (MOLM-13, MOLM13 cell), less than 10 nM.
As for `CCCN(C)c1nc(Nc2cccc(F)c2)ncc1C#CCCCNC(=O)[C@H](C)N(C)C(=O)/C=C/CN(C)C` [Compound 9-5], the IC50 in experiment [1] (setting [2]) was less than 10 nM; with MV4-11 cells (setting [3]), 10 to 100 nM; in the experiment with Molm-13 cells (setting [4]) it was 10 to 100 nM.
Consider `C[C@@H](C(=O)NCCCC#Cc1cnc(Nc2cccc(F)c2)nc1NCCCN(C)C)N(C)C(=O)/C=C/CN(C)C` [Compound 10-4], for which the IC50 (in experiment [1] (setting [2]); with MV4-11 cells (setting [3]); in the experiment with Molm-13 cells (setting [4])) was less than 10 nM throughout.
`CCCNc1nc(Nc2ccc(C#N)cc2)ncc1C#CCCCNC(=O)[C@@H]1C[C@H](F)CN1C(=O)/C=C/CN(C)C` [Compound 7-50]: the IC50 (in experiment [1] (setting [2]); in the experiment with MV4-11 cells (setting [3]); in the experiment on Molm-13 cells (setting [4])) was less than 10 nM each time.
For the molecule `C=CC(=O)NCC(=O)Nc1ccccc1CNC(=O)c1cnc(NCCc2ccncc2)nc1NCCC` [Compound 2-29], the results for the IC50 (in experiment [1] (setting [2]); in the experiment with MV4-11 cells (setting [3]); in the experiment with Molm-13 cells (setting [4])) were 10 to 100 nM, 100 to 1000 nM and 100 to 1000 nM, respectively.
For `CCCNc1nc(Nc2ccc(C(N)=O)cc2)ncc1C(=O)Nc1cccc(NC(=O)[C@H](C)N(C)C(=O)/C=C/CBr)c1` [Compound 3-7, (S,E)-N-(3-(2-(4-bromo-N-methyl-2-butenamido)propanamido)phenyl)-2-((4-carbamoylphenyl)amino)-4-(propylamino)pyrimidine-5-carboxamide], the IC50 was less than 10 nM in experiment [1] (setting [2]), 10 to 100 nM with MV4-11 cells (setting [3]) and 10 to 100 nM with Molm-13 cells (setting [4]).
Consider `CCCNc1nc(Nc2ccc(-n3cccn3)cc2)ncc1C#CCCCNC(=O)[C@H](C)N(C)C(=O)/C=C/CN(C)C` [Compound 22-15], for which the IC50 in experiment [1] (FLT3 (WT)) is less than 10 nM; in the experiment with MV4-11 cells (MV4-11, MV4-11 cell) it was 10 to 100 nM; in the experiment with Molm-13 cells (MOLM-13, MOLM13 cell), 10 to 100 nM.
Turning to `C[C@@H](C(=O)NCCCC#Cc1cnc(Nc2ccc(C#N)cc2)nc1-n1cncn1)N(C)C(=O)/C=C/CN(C)C` [Compound 20-4], the IC50 in experiment [1] (setting [2]) is less than 10 nM; with MV4-11 cells (setting [3]) it was 10 to 100 nM; with Molm-13 cells (setting [4]) it was 10 to 100 nM.
Turning to `CCCNc1nc(Nc2ccc(C(N)=O)cc2)ncc1C(=O)Nc1cccc(NC(=O)[C@H](C)N(C)C(=O)/C=C/CN(CC)CC)c1` [Compound 4-8, (S,E)-2-((4-Carbamoylphenyl)amino)-N-(3-(2-(4-(diethylamino)-N-methyl-2-butenamido)propanamido)phenyl)-4-(propylamino)pyrimidine-5-carboxamide], the IC50 (in experiment [1] (setting [2]); in the experiment on MV4-11 cells (setting [3]); in the experiment with Molm-13 cells (setting [4])) was less than 10 nM in each case.
In the case of `C[C@@H](C(=O)N[C@H]1CCC[C@@H](C#Cc2cnc(Nc3ccc(F)cc3)nc2NC2CC2)C1)N(C)C(=O)/C=C/CN(C)C` [Compound 21-46], the IC50 was less than 10 nM in experiment [1] (FLT3 (WT)); less than 10 nM in the experiment on MV4-11 cells (MV4-11, MV4-11 cell); less than 10 nM in the experiment with Molm-13 cells (MOLM-13, MOLM13 cell).
On to `CNc1nc(Nc2ccc(F)cc2)ncc1C#CCCCNC(=O)[C@@H]1C[C@H](F)CN1C(=O)/C=C/CN(C)C` [Compound 7-80, (2S,4S)-1-((E)-4-(Dimethylamino)-2-butenoyl)-4-fluoro-N-(5-(2-((4-fluorophenyl)amino)-4-(methylamino)pyrimidin-5-yl)-4-pentyn-1-yl)pyrrolidine-2-carboxamide], for which the IC50 (in experiment [1] (setting [2]); in the experiment on MV4-11 cells (setting [3]); in the experiment with Molm-13 cells (setting [4])) was less than 10 nM in each case.
Regarding `CCCNc1nc(Nc2ccc(C#N)cc2)ncc1C#CCCCNC(=O)CN(CCC)C(=O)/C=C/CN(C)C` [Compound 7-64], the IC50 (in experiment [1] (setting [2]); in the experiment on MV4-11 cells (setting [3]); in the experiment with Molm-13 cells (setting [4])) was less than 10 nM throughout.
Take `CCCNc1nc(Nc2ccc3c(OC)nn(COCC)c3c2)ncc1C#CCCCNC(=O)[C@H](C)N(C)C(=O)/C=C/CN(C)C` [Compound 22-50]: the IC50 in experiment [1] (FLT3 (WT)) is less than 10 nM; in the experiment on MV4-11 cells (MV4-11, MV4-11 cell), 10 to 100 nM; in the experiment with Molm-13 cells (MOLM-13, MOLM13 cell), less than 10 nM.
In the case of `CCCNc1nc(Nc2ccc(C#N)cc2)ncc1C#C[C@H]1CC[C@H](NC(=O)[C@H](C)N(C)C(=O)/C=C/CN(C)C)C1` [Compound 13-12], the IC50 (in experiment [1] (setting [2]); with MV4-11 cells (setting [3]); with Molm-13 cells (setting [4])) was less than 10 nM each time.
On to `CCCNc1nc(NCCc2ccncc2)ncc1C(=O)NCCC(CC)NC(=O)CNC(=O)/C=C/CN(C)C` (stereo not drawn) [Compound 1-11], for which the figures for the IC50 (in experiment [1] (setting [2]); in the experiment on MV4-11 cells (setting [3]); with Molm-13 cells (setting [4])) were less than 10 nM, 10 to 100 nM and 10 to 100 nM, respectively.
As to `C[C@@H](C(=O)NCCCC#Cc1cnc(Nc2cccc(F)c2)nc1NCC1CC1)N(C)C(=O)/C=C/CN(C)C` [Compound 21-4], the IC50 is less than 10 nM in experiment [1] (setting [2]), less than 10 nM in the experiment with MV4-11 cells (setting [3]) and 10 to 100 nM with Molm-13 cells (setting [4]).
As to `CCCN(c1nc(Nc2ccnc(F)c2)ncc1C#CCCCNC(=O)[C@H](C)N(C)C(=O)/C=C/CN(C)C)C1CC1` [Compound 9-14], the IC50 (in experiment [1] (setting [2]); with MV4-11 cells (setting [3]); in the experiment on Molm-13 cells (setting [4])) was less than 10 nM in each case.
In the case of `C[C@@H](C(=O)N[C@H]1CCC[C@@H](C#Cc2cnc(Nc3ccc(C#N)cc3)nc2NC2CC2)C1)N(C)C(=O)/C=C/CN(C)C` [Compound 7-35], the IC50 (in experiment [1] (setting [2]); with MV4-11 cells (setting [3]); in the experiment on Molm-13 cells (setting [4])) was less than 10 nM in each case.
Take `CCCNc1nc(Nc2cnc(C)c(C)c2)ncc1C#CCCCNC(=O)[C@H](C)N(C)C(=O)/C=C/CN(C)C` [Compound 21-18]: the IC50 (in experiment [1] (setting [2]); with MV4-11 cells (setting [3]); in the experiment on Molm-13 cells (setting [4])) was 10 to 100 nM throughout.
Regarding `CNc1nc(Nc2ccc3cnn(C)c3c2)ncc1C#CCCCNC(=O)[C@H](C)N(C)C(=O)/C=C/CN(C)C` [Compound 10-56], the IC50 (in experiment [1] (setting [2]); with MV4-11 cells (setting [3]); in the experiment with Molm-13 cells (setting [4])) was less than 10 nM in each case.
